Experiments:
[1] = target: E. coli DNA gyrase GyrA mutant EcD87A (Escherichia coli, UniProt P0AES4+P0AES6, D87A); assay: Supercoiling inhibition assay, GyrA EcD87A mutant gyrase; format: biochemical
Protocol: (§1) Supercoiling reactions were carried out as described previously ([24]) with minor adjustments. A total of 500 ng of relaxed pBR322 plasmid was used as a substrate for each 30 μl reaction. The amount of DNA gyrase (A2B2) added was normalized by testing various dilutions of the stock (A2B2 containing 0.5 mg/ml of each subunit) without compound. The amount sufficient to supercoil 50% of the substrate was then used for the testing of compounds. See Supplementary Figure S1 for details. This ensured a limiting amount of enzyme for every mutant tested. The individual gyrase subunits were either prepared in the lab as described previously ([25]) or purchased from Inspiralis.
(§2) The activity of tricyclic and bicyclic IPYs (Figure 1) was tested in a supercoiling inhibition assay (Table 1) on wild-type (wt) E. coli DNA gyrase and GyrA mutants EcS83L (SaS84), EcD87A (SaE88) and EcD82N (SaD83). These residues are located in the ‘Quinolone-Resistance-Determining-Region’, frequently found mutated in resistant clinical isolates ([18],[35–38]). Based on the structures solved of FQs bound to DNA gyrase and topo IV, it has been established that both residues EcS83 and EcD87 are involved in a water–metal–ion bridge that is important for the stabilization of the ternary complex, explaining the resistance to FQs observed when these residues are mutated ([15–16],[23],[29],[39]).

[2] = target: T1, wild-type E. coli DNA gyrase (Escherichia coli, UniProt P0AES4+P0AES6); assay: biochemical; conditions: relaxed pBR322 substrate, read-out: Supercoiling IC50
Protocol: as §1

[3] = target: E. coli DNA gyrase GyrA mutant EcD82N (Escherichia coli, UniProt P0AES4+P0AES6, D82N); assay: Supercoiling inhibition assay, GyrA EcD82N mutant gyrase; format: biochemical
Protocol: as §1, §2

[4] = target: E. coli DNA gyrase GyrA mutant EcS83L (Escherichia coli, UniProt P0AES4+P0AES6, S83L); assay: Supercoiling inhibition assay, GyrA EcS83L mutant gyrase; format: biochemical; conditions: for Resistance of EcS83L mutant enzyme in supercoiling inhibition: EcS83L compared to wt
Protocol: as §1, §2

[5] = target: T1, wild-type E. coli DNA gyrase; format: biochemical; conditions: purified E. coli DNA gyrase, linear plasmid DNA
Protocol: (§3) A total of 500 ng of relaxed pBR322 plasmid was used as a substrate for each 30 μl reaction.

[6] = target: T2, Escherichia coli wt gyrase (Escherichia coli, UniProt P0AES4+P0AES6); format: biochemical; conditions: 8 mM EDTA, no ATP; disappearance of linear double-strand cleavage
Protocol: as §3
Figure 6.

[7] = target: T2, Escherichia coli wt gyrase; format: biochemical; conditions: 25°C, presence vs absence of ATP
Protocol: The reactions were carried out either in the presence or absence of ATP for both compounds.
The top panels show the results of cleavage assays with various times allowed for the formation of the cleavage complexes as indicated. The experiment was performed in the presence and the absence of ATP as indicated. […] Approximately 400 ng of A2B2Escherichia coli wt gyrase was used in each assay.

[8] = system: ΔTolC E. coli; design: method as in Jeannot et al. In revision in J Med Chem; conditions: ref Jeannot et al. In revision in J Med Chem; cited from earlier work

| SMILES | IC50 [1] [µM] | Resistance of EcD87A mutant enzyme in supercoiling inhibition ([1]; EcD87A compared to wt) | IC50 [2] [µM] | IC50 [3] [µM] | Resistance of EcD82N mutant enzyme in supercoiling inhibition ([3]; EcD82N compared to wt) | IC50 [4] [µM] | Resistance of EcS83L mutant enzyme in supercoiling inhibition [4] | Level of double-stranded cleavage induced [5] | Resealing of stabilized cleavage by EDTA [6] | Effect of ATP on rate of appearance of linear DNA (cleavage) [7] | Antibacterial activity ranking on ΔTolC E. coli [8] | Increase in supercoiling IC50 with EcS83L mutant compared to wt ([4]; EcS83L vs wild-type) [fold] |
| --- | --- | --- | --- | --- | --- | --- | --- | --- | --- | --- | --- | --- |
| N[C@H]1CCN(c2cc3c(cc2F)n2ncnc2c(=O)n3C2CC2)C1 [t2] | 1.7 | low to no resistance | 1.7 | 4 to 20 | high resistance | 9.5 | partial resistance |  |  |  |  |  |
| N[C@H]1CCN(c2cc3c(cc2F)n2ccnc2c(=O)n3C2CC2)C1 [t1] | 0.5 |  | 0.5 | 9.4 |  | 3.7 |  | comparable to those obtained with ciprofloxacin | slower | greatly stimulated | most active tricyclic IPY | ~7 |
| Cn1cc(-c2ccc(NC(=O)Cc3ccc(Cl)cc3)cc2)n2ccnc2c1=O [b2] |  |  | 5.2 |  |  | 11 | less active against EcS83L |  |  |  |  |  |
| O=C(Cc1ccccc1)Nc1ccc(-c2cn(-c3ccc(O)cc3)c(=O)c3nccn23)cc1 [b1, N-{4-[7-(4-hydroxyphenyl)-8-oxo-7,8-dihydroimidazo[1,2-a]pyrazin-5-yl]phenyl}-2-phenylacetamide] |  |  | 2.6 |  |  | 1 | improved activity toward the EcS83L mutant enzyme compared to the wt |  |  |  |  |  |

— paper PMC5934680, “A new class of antibacterials, the imidazopyrazinones, reveal structural transitions involved in DNA gyrase poisoning and mechanisms of resistance” (Nucleic Acids Research, 2018)
